“And” between values parts separate entries of the source, which are not always exact repeats. Identical values can stand only once. Inconclusive results and toxic doses are left out. No stated cut-off is given here; in the data, active means T/C of 150% or more; inactive means T/C below 125%.
Tested on: L1210 leukemia ip in BDF1 mice, survival T/C
Assay: NCI In Vivo Anticancer Drug Screen. Data for tumor model L1210 Leukemia (intraperitoneal) in B6D2F1 (BDF1) mice
Conditions: endpoint: mean survival time, higher = longer survival
Outline: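 Transplantable tumor model; survival measured in treated vs vehicle control mice. Value = treated/control.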

[1] = dose: 25.0 mg/kg/injection, schedule: Q01DX009 (ip), vehicle: Klucel (hydroxypropylcellulose) (HPC)
[2] = dose: 50.0 mg/kg/injection, schedule: Q01DX009 (ip), vehicle: Klucel (hydroxypropylcellulose) (HPC)
[3] = dose: 100.0 mg/kg/injection, schedule: Q01DX009 (ip), vehicle: saline with Tween-80
[4] = dose: 200.0 mg/kg/injection, schedule: Q01DX009 (ip), vehicle: saline with Tween-80
[5] = dose: 400.0 mg/kg/injection, schedule: Q01DX009 (ip), vehicle: saline with Tween-80
[6] = dose: 75.0 mg/kg/injection, schedule: Q01DX001 (ip), vehicle: saline
[7] = dose: 150.0 mg/kg/injection, schedule: Q01DX001 (ip), vehicle: saline
[8] = dose: 100.0 mg/kg/injection, schedule: Q01DX001 (ip), vehicle: saline
[9] = dose: 200.0 mg/kg/injection, schedule: Q01DX001 (ip), vehicle: saline
[10] = dose: 400.0 mg/kg/injection, schedule: Q01DX001 (ip), vehicle: saline
[11] = dose: 100.0 mg/kg/injection, schedule: Q04DX003 (ip), vehicle: saline
[12] = dose: 200.0 mg/kg/injection, schedule: Q04DX003 (ip), vehicle: saline
[13] = dose: 400.0 mg/kg/injection, schedule: Q04DX003 (ip), vehicle: saline

Measured: T/C

COc1cc([N+](=O)[O-])ccc1NC(=O)Oc1ccccc1C(N)=O
inactive: dose: 12.5 mg/kg/injection, schedule: Q01DX009 (ip), vehicle: Klucel (hydroxypropylcellulose) (HPC) 102 % of control | [1] 100 % of control | [2] 98 % of control

O=C(Nc1cccnc1)C1=Cc2ccccc2OC1
inactive: [3] 95 % of control | dose: 100.0 mg/kg/injection, schedule: Q04DX003 (ip), vehicle: saline with Tween-80 103 % of control | [4] 94 % of control | dose: 200.0 mg/kg/injection, schedule: Q04DX003 (ip), vehicle: saline with Tween-80 98 % of control | [5] 105 % of control | dose: 400.0 mg/kg/injection, schedule: Q04DX003 (ip), vehicle: saline with Tween-80 107 % of control

CC(=O)CC(=O)Nc1nc(C)cs1
inactive: dose: 75.0 mg/kg/injection, schedule: Q01DX001 (ip), vehicle: Klucel (hydroxypropylcellulose) (HPC) 100 % of control | dose: 150.0 mg/kg/injection, schedule: Q01DX001 (ip), vehicle: Klucel (hydroxypropylcellulose) (HPC) 100 % of control | dose: 300.0 mg/kg/injection, schedule: Q01DX001 (ip), vehicle: Klucel (hydroxypropylcellulose) (HPC) 95 % of control

Cc1ccc(S(=O)(=O)OC2C(C)C3CS(=O)(=O)C32)cc1 (stereo unspecified)
inactive: dose: 100.0 mg/kg/injection, schedule: Q04DX002 (ip), vehicle: DMSO 119 % of control | dose: 200.0 mg/kg/injection, schedule: Q04DX002 (ip), vehicle: DMSO 105 % of control | dose: 400.0 mg/kg/injection, schedule: Q04DX002 (ip), vehicle: DMSO 102 % of control

C[N+](C)(C)C1CCCCCCC1
inactive: [6] 96 % of control | [7] 108 % of control

c1cc2n(c1)Cc1cc3c(cc1NC2)OCO3
inactive: dose: 25.0 mg/kg/injection, schedule: Q04DX002 (ip), vehicle: Klucel (hydroxypropylcellulose) (HPC) 90 % of control | dose: 50.0 mg/kg/injection, schedule: Q04DX002 (ip), vehicle: Klucel (hydroxypropylcellulose) (HPC) 86 % of control | dose: 100.0 mg/kg/injection, schedule: Q04DX002 (ip), vehicle: Klucel (hydroxypropylcellulose) (HPC) 94 % of control

COc1ccc(OC)c2ccccc12
inactive: dose: 50.0 mg/kg/injection, schedule: Q01DX005 (ip), vehicle: saline with Tween-80 101 % of control | dose: 100.0 mg/kg/injection, schedule: Q01DX005 (ip), vehicle: saline with Tween-80 101 % of control | dose: 200.0 mg/kg/injection, schedule: Q01DX005 (ip), vehicle: saline with Tween-80 111 % of control | dose: 400.0 mg/kg/injection, schedule: Q01DX005 (ip), vehicle: saline with Tween-80 98 % of control

CC(C)(N)CN
inactive: [8] 96 % of control | [9] 96 % of control | [10] 94 % of control

CC(=O)OC1CCC2(C)C(CCC3C2CCC2(C)C(C(C)CCO)CCC32)C1 (stereo unspecified)
inactive: dose: 100.0 mg/kg/injection, schedule: Q04DX003 (sc), vehicle: steriod suspending solution 95 % of control | dose: 200.0 mg/kg/injection, schedule: Q04DX003 (sc), vehicle: steriod suspending solution 104 % of control | dose: 400.0 mg/kg/injection, schedule: Q04DX003 (sc), vehicle: steriod suspending solution 100 % of control

c1ccc(C2OCCOC2c2ccccc2)cc1 (stereo unspecified)
inactive: dose: 100.0 mg/kg/injection, schedule: Q01DX001 (ip), vehicle: carboxymethylcellulose (CMC) 101 % of control | dose: 200.0 mg/kg/injection, schedule: Q01DX001 (ip), vehicle: carboxymethylcellulose (CMC) 103 % of control | dose: 400.0 mg/kg/injection, schedule: Q01DX001 (ip), vehicle: carboxymethylcellulose (CMC) 101 % of control

O=C1C2C3C=CC(CC3)C2S(=O)(=O)C2C3C=CC(CC3)C12 (stereo unspecified)
inactive: dose: 25.0 mg/kg/injection, schedule: Q04DX002 (ip), vehicle: gum acacia 96 % of control | dose: 50.0 mg/kg/injection, schedule: Q04DX002 (ip), vehicle: gum acacia 104 % of control | dose: 100.0 mg/kg/injection, schedule: Q04DX002 (ip), vehicle: gum acacia 100 % of control

O=C(Cl)c1c(Cl)c(Cl)c(C(=O)Cl)c(Cl)c1Cl
inactive: dose: 25.0 mg/kg/injection, schedule: Q01DX009 (ip), vehicle: saline 90 % of control | dose: 50.0 mg/kg/injection, schedule: Q01DX009 (ip), vehicle: saline 97 % of control | [8] 98 % of control | [11] 100 % of control | [9] 98 % of control | [10] 104 % of control

CSc1ncc(COC(C)=O)c(N)n1
inactive: dose: 100.0 mg/kg/injection, schedule: Q01DX001 (ip), vehicle: Klucel (hydroxypropylcellulose) (HPC) 97 % of control | dose: 100.0 mg/kg/injection, schedule: Q01DX009 (ip), vehicle: Klucel (hydroxypropylcellulose) (HPC) 102 % of control | dose: 200.0 mg/kg/injection, schedule: Q01DX001 (ip), vehicle: Klucel (hydroxypropylcellulose) (HPC) 99 % of control | dose: 200.0 mg/kg/injection, schedule: Q01DX009 (ip), vehicle: Klucel (hydroxypropylcellulose) (HPC) 96 % of control | dose: 400.0 mg/kg/injection, schedule: Q01DX001 (ip), vehicle: Klucel (hydroxypropylcellulose) (HPC) 92 % of control | dose: 400.0 mg/kg/injection, schedule: Q01DX009 (ip), vehicle: Klucel (hydroxypropylcellulose) (HPC) 104 % of control

CCCCCCCCC(=O)N1CCOCC1
inactive: dose: 4.68 mg/kg/injection, schedule: Q01DX009 (ip), vehicle: saline 97 % of control | dose: 9.37 mg/kg/injection, schedule: Q01DX009 (ip), vehicle: saline 97 % of control | dose: 12.5 mg/kg/injection, schedule: Q04DX003 (ip), vehicle: Klucel (hydroxypropylcellulose) (HPC) 99 % of control | dose: 18.75 mg/kg/injection, schedule: Q01DX009 (ip), vehicle: saline 97 % of control | [1] 104 % of control | dose: 25.0 mg/kg/injection, schedule: Q04DX003 (ip), vehicle: Klucel (hydroxypropylcellulose) (HPC) 103 % of control and 104 % of control | dose: 37.5 mg/kg/injection, schedule: Q01DX009 (ip), vehicle: saline 95 % of control | [2] 96 % of control | dose: 50.0 mg/kg/injection, schedule: Q04DX003 (ip), vehicle: Klucel (hydroxypropylcellulose) (HPC) 101 % of control | dose: 100.0 mg/kg/injection, schedule: Q04DX003 (ip), vehicle: Klucel (hydroxypropylcellulose) (HPC) 92 % of control

O=C(O)Cc1ccc2ccccc2c1Br
inactive: [11] 97 % of control | [12] 95 % of control | [13] 90 % of control

Cc1ccc(C)c(NC(=O)Oc2ccc(-c3ccccc3)cc2)c1
inactive: dose: 100.0 mg/kg/injection, schedule: Q01DX009 (ip), vehicle: saline 96 % of control | [11] 109 % of control | dose: 200.0 mg/kg/injection, schedule: Q01DX009 (ip), vehicle: saline 95 % of control | [12] 110 % of control | dose: 400.0 mg/kg/injection, schedule: Q01DX009 (ip), vehicle: saline 95 % of control | [13] 101 % of control

Cc1ccc(C2CCCCC2OS(=O)(=O)c2ccc(C)cc2)cc1 (stereo unspecified)
inactive: dose: 100.0 mg/kg/injection, schedule: Q01DX001 (ip), vehicle: steriod suspending solution 102 % of control | dose: 200.0 mg/kg/injection, schedule: Q01DX001 (ip), vehicle: steriod suspending solution 95 % of control | dose: 400.0 mg/kg/injection, schedule: Q01DX001 (ip), vehicle: steriod suspending solution 109 % of control

O=C(COc1cc2ccccc2cc1C(=O)O)NCc1ccc(Cl)cc1
inactive: dose: 25.0 mg/kg/injection, schedule: Q04DX003 (ip), vehicle: saline 96 % of control | dose: 50.0 mg/kg/injection, schedule: Q04DX003 (ip), vehicle: saline 100 % of control | [11] 101 % of control | [12] 101 % of control

Cc1cc(C)c(C(=O)OC(c2ccccc2)C(C)c2ccccc2)c(C)c1 (stereo unspecified)
inactive: [6] 94 % of control | [7] 94 % of control | dose: 300.0 mg/kg/injection, schedule: Q01DX001 (ip), vehicle: saline 89 % of control

Cc1cc(C(=O)O)cc(C)c1NC(=O)N(CCCl)N=O
inactive: dose: 46.0 mg/kg/injection, schedule: Q01DX001 (ip), vehicle: other 91 % of control | dose: 62.0 mg/kg/injection, schedule: Q01DX001 (ip), vehicle: other 90 % of control

N/C(=N\N=C\c1ccccn1)c1ccccn1
inactive: dose: 10.0 mg/kg/injection, schedule: Q01DX001 (ip), vehicle: water 93 % of control

CCc1ccc(/C=C/c2ccc(O)c3ccccc23)[n+](C)c1
inactive: [6] 97 % of control | [7] 105 % of control

CCOC(=O)C(CC)c1nc2ccccc2o1 (stereo unspecified)
inactive: dose: 50.0 mg/kg/injection, schedule: Q01DX009 (ip), vehicle: saline with Tween-80 109 % of control | [3] 100 % of control | [4] 95 % of control | [5] 94 % of control

— PubChem BioAssay AID248 (DTP/NCI, 2004)
